In DBAASP:
Converted amounts (≈) assume the structure as drawn. “And” between values parts separate entries of the source, which are not always exact repeats. Equal entries are not always repeated. One block for each molecule: values may come before it.

Key:
Test in all cases: ≥ marks a high value that may be exact or a test limit, other limits are often not marked, values filed in µg/mL are converted to µM
[1] = test system: Acinetobacter baumannii ATCC 19606
[2] = test system: Candida albicans ATCC 90028
[3] = test system: Candida parapsilosis ATCC 22019
[4] = test system: Enterococcus faecalis ATCC 29212
[5] = test system: Escherichia coli ATCC 25922
Escherichia coli ML-35p = test system: Escherichia coli ML-35p
[6] = test system: Klebsiella pneumoniae ATCC 13883
Listeria ivanovii = test system: Listeria ivanovii
[7] = test system: Pseudomonas aeruginosa ATCC 27853
Saccharomyces cerevisiae = test system: Saccharomyces cerevisiae
[8] = test system: Salmonella enterica subsp. enterica serovar Enteritidis
[9] = test system: Staphylococcus aureus ATCC 25923
[10] = test system: Staphylococcus aureus ST1065
[11] = test system: Streptococcus pyogenes ATCC 19615
[12] = test system: Actinomyces naeslundii ATCC 12104
[13] = test system: Actinomyces viscosus ATCC 15987
[14] = test system: Lacticaseibacillus casei ATCC 393
[15] = test system: Lactobacillus acidophilus ATCC 14931
[16] = test system: Limosilactobacillus fermentum ATCC 9338
[17] = test system: Streptococcus gordonii DL1
[18] = test system: Streptococcus mutans UA159
[19] = test system: Streptococcus sanguinis ATCC 10556
Escherichia coli 1 = test system: Escherichia coli 1
Escherichia coli C600 = test system: Escherichia coli C600
Escherichia coli = test system: Escherichia coli
Klebsiella pneumoniae 1 = test system: Klebsiella pneumoniae 1
Klebsiella pneumoniae 2 = test system: Klebsiella pneumoniae 2
Pseudomonas aeruginosa 1 = test system: Pseudomonas aeruginosa 1
Pseudomonas aeruginosa 2 = test system: Pseudomonas aeruginosa 2
[20] = test system: Pseudomonas aeruginosa PAO1
[21] = test system: Staphylococcus aureus 209P
[22] = test system: Staphylococcus aureus ATCC 33591
[23] = test system: Acinetobacter baumannii 1
Acinetobacter baumannii = test system: Acinetobacter baumannii
Aspicilia cinerea = test system: Aspicilia cinerea
Bacillus cereus = test system: Bacillus cereus
Bacillus subtilis = test system: Bacillus subtilis
Candida albicans 1 = test system: Candida albicans 1
Candida albicans = test system: Candida albicans
Candida glabrata = test system: Candida glabrata
Enterococcus faecium = test system: Enterococcus faecium
Klebsiella pneumoniae = test system: Klebsiella pneumoniae
Proteus mirabilis = test system: Proteus mirabilis
Proteus vulgaris = test system: Proteus vulgaris
Pseudomonas aeruginosa = test system: Pseudomonas aeruginosa
Staphylococcus aureus 1 = test system: Staphylococcus aureus 1
Staphylococcus aureus = test system: Staphylococcus aureus
[24] = test system: Staphylococcus epidermidis
Vibrio anguillarum = test system: Vibrio anguillarum
Vibrio cholerae = test system: Vibrio cholerae
[25] = test system: Vibrio parahaemolyticus ATCC 17802
Vibrio parahaemolyticus = test system: Vibrio parahaemolyticus
Vibrio splendidus = test system: Vibrio splendidus
[26] = test system: Staphylococcus aureus USA 300 LAC
[27] = test system: Staphylococcus aureus USA 300

Compound: CC[C@H](C)[C@H](NC(=O)CNC(=O)[C@H](CO)NC(=O)[C@H](C)NC(=O)[C@@H](N)Cc1ccccc1)C(=O)N[C@@H](C)C(=O)NCC(=O)N[C@@H](CCSC)C(=O)N[C@@H](C)C(=O)NCC(=O)N[C@@H](CCCCN)C(=O)N[C@@H](CC(C)C)C(=O)N[C@@H](Cc1ccccc1)C(N)=O [FASGIAGMAGKLF]
MIC [1]: > 200 µM
MIC [2]: ≥ 200 µM
MIC [3]: ≥ 200 µM
MIC [4]: > 200 µM
MIC [5]: > 200 µM
MIC (Escherichia coli ML-35p): ≥ 200 µM
MIC [6]: ≥ 200 µM
MIC (Listeria ivanovii): ≥ 200 µM
MIC [7]: > 200 µM
MIC (Saccharomyces cerevisiae): ≥ 200 µM
MIC [8]: ≥ 200 µM
MIC [9]: > 200 µM
MIC [10]: ≥ 200 µM
MIC [11]: ≥ 200 µM

Compound: CC[C@H](C)[C@H](NC(=O)[C@H](CCCN=C(N)N)NC(=O)[C@H](CCCN=C(N)N)NC(=O)[C@H](CC(C)C)NC(=O)[C@H](Cc1c[nH]c2ccccc12)NC(=O)[C@H](Cc1c[nH]c2ccccc12)NC(=O)[C@@H](N)Cc1c[nH]c2ccccc12)C(=O)N[C@@H](CCCN=C(N)N)C(N)=O [WWWLRRIR]
MIC [5]: 25 µM (≈ 31.8 µg/mL)
MIC [6]: 25 µM (≈ 31.8 µg/mL)
MIC [20]: 12.5 µM (≈ 15.9 µg/mL)
MIC [26]: 12.5 µM (≈ 15.9 µg/mL)
MIC [27]: 12.5 µM (≈ 15.9 µg/mL)

The next lines start with results.

MIC [12]: ≥ 257 µM
MIC [13]: ≥ 257 µM
MIC [14]: 4.02 µM (≈ 8 µg/mL)
MIC [15]: 4.02 µM (≈ 8 µg/mL)
MIC [16]: 16.1 µM (≈ 32 µg/mL)
MIC [17]: ≥ 64.3 µM
MIC [18]: ≥ 257 µM
MIC [19]: ≥ 64.3 µM
Compound: CC(C)C[C@H](NC(=O)CN)C(=O)N[C@@H](CC(C)C)C(=O)N[C@@H](Cc1c[nH]c2ccccc12)C(=O)N[C@@H](Cc1cnc[nH]1)C(=O)N[C@@H](CC(C)C)C(=O)N[C@@H](CC(C)C)C(=O)N[C@@H](Cc1cnc[nH]1)C(=O)N[C@@H](Cc1cnc[nH]1)C(=O)N[C@@H](CC(C)C)C(=O)N[C@@H](CC(C)C)C(=O)N[C@@H](Cc1cnc[nH]1)C(=O)N[C@@H](CC(C)C)C(=O)N[C@@H](CC(C)C)C(=O)N[C@@H](Cc1cnc[nH]1)C(=O)N[C@@H](Cc1cnc[nH]1)C(N)=O [GLLWHLLHHLLHLLHH]

MIC (Escherichia coli 1): 1 µM and 0.5 µM
MIC (Escherichia coli C600): 1.56 µM (≈ 3.39 µg/mL)
MIC (Escherichia coli): 0.5 µM and 1 µM
MIC (Klebsiella pneumoniae 1): 1 µM and 2 µM
MIC (Klebsiella pneumoniae 2): 2 µM and 4 µM
MIC (Pseudomonas aeruginosa 1): 2 µM (≈ 4.35 µg/mL)
MIC (Pseudomonas aeruginosa 2): 2 µM (≈ 4.35 µg/mL)
MIC [20]: 3.13 µM (≈ 6.81 µg/mL)
MIC [21]: 3.13 µM (≈ 6.81 µg/mL)
MIC [22]: 0.12 µM (≈ 0.261 µg/mL)
Compound: CC(C)[C@@H]1NC(=O)CNC(=O)[C@H](CCCN=C(N)N)NC(=O)[C@H](C(C)C)NC(=O)[C@@H]2CSSC[C@H](NC1=O)C(=O)N[C@@H](Cc1ccc(O)cc1)C(=O)N[C@@H](CCCN=C(N)N)C(=O)N[C@@H](CCCN=C(N)N)C(=O)N[C@H](C(=O)N[C@@H](Cc1c[nH]c3ccccc13)C(=O)O)CSSC[C@H](NC(=O)[C@H](Cc1c[nH]c3ccccc13)NC(=O)[C@@H](N)CCCN=C(N)N)C(=O)N[C@@H](C(C)C)C(=O)N[C@@H](Cc1ccc(O)cc1)C(=O)N[C@@H](C)C(=O)N2 [RWCVYACVRGVCYRRCW]

MIC [23]: 7.33 µM (≈ 18.8 µg/mL)
MIC (Acinetobacter baumannii): ≥ 78.2 µM
MIC (Aspicilia cinerea): 7.33 µM (≈ 18.8 µg/mL)
MIC (Bacillus cereus): 7.33 µM (≈ 18.8 µg/mL)
MIC (Bacillus subtilis): 0.919 µM (≈ 2.35 µg/mL)
MIC (Candida albicans 1): 5.19 µM (≈ 13.3 µg/mL)
MIC (Candida albicans): 14.7 µM (≈ 37.5 µg/mL)
MIC (Candida glabrata): 14.7 µM (≈ 37.5 µg/mL)
MIC (Enterococcus faecium): 7.33 µM (≈ 18.8 µg/mL)
MIC (Escherichia coli 1): 7.33 µM (≈ 18.8 µg/mL)
MIC (Klebsiella pneumoniae 1): ≥ 78.2 µM
MIC (Klebsiella pneumoniae): 5.19 µM (≈ 13.3 µg/mL)
MIC (Proteus mirabilis): 1.83 µM (≈ 4.69 µg/mL)
MIC (Proteus vulgaris): ≥ 78.2 µM
MIC [7]: 7.33 µM (≈ 18.8 µg/mL)
MIC (Pseudomonas aeruginosa): 5.19 µM (≈ 13.3 µg/mL)
MIC (Staphylococcus aureus 1): 5.19 µM (≈ 13.3 µg/mL)
MIC [9]: 14.7 µM (≈ 37.5 µg/mL)
MIC (Staphylococcus aureus): 14.7 µM (≈ 37.5 µg/mL)
MIC [24]: 7.33 µM (≈ 18.8 µg/mL)
MIC (Vibrio anguillarum): 1.83 µM (≈ 4.69 µg/mL)
MIC (Vibrio splendidus): 1.83 µM (≈ 4.69 µg/mL)
Compound: CC[C@H](C)[C@H](NC(=O)[C@H](CCCCN)NC(=O)[C@H](CC(C)C)NC(=O)[C@H](C)NC(=O)CNC(=O)[C@H](CC(N)=O)NC(=O)[C@H](CC(C)C)NC(=O)[C@@H](NC(=O)[C@H](CCCCN)NC(=O)[C@H](CCCCN)NC(=O)[C@H](Cc1c[nH]c2ccccc12)NC(=O)[C@H](Cc1ccccc1)NC(=O)[C@H](CCCCN)NC(=O)[C@H](CCCN=C(N)N)NC(=O)[C@H](CCCN=C(N)N)NC(=O)[C@@H](N)[C@@H](C)O)C(C)C)C(=O)N[C@@H](C)C(=O)N1CCC[C@H]1C(=O)N[C@@H](Cc1ccccc1)C(=O)N[C@@H](CC(C)C)C(=O)N[C@@H](CC(C)C)C(=O)NCC(=O)O [TRRKFWKKVLNGALKIAPFLLG]
MIC (Vibrio cholerae): 7.33 µM (≈ 18.8 µg/mL)
MIC [25]: 1.83 µM (≈ 4.69 µg/mL)
MIC (Vibrio parahaemolyticus): 1.83 µM (≈ 4.69 µg/mL)
